The source of these data is ChEMBL document CHEMBL5724914, “Linking interpersonal differences in gut microbiota composition and drug biotransformation activity” (2024).

The conditions of series [1]: human gut metagenome, 24 h, 2 µM.
For series [2] the following is noted: human gut metagenome, 24 h, 2 µM. The source holds these as a separate data set.
A short description of series [3]: The drug is tested on Z-009 corresponding to pig gut metagenome with ENA study accession number: PRJEB37062 and ENA sample accession number: ERS12561809 for biotransformation under anaerobic condition. The drug concentrations were measured over 9 timepoints collected between 0 and 24 hours of incubation by liquid-chromatography-coupled mass spectrometry (LC–MS). The conditions noted are these: 2 µM.

The conditions of series [4]: human gut metagenome, 24 h, 2 µM. The source holds these as a separate data set.
Series [5] can be described thus: The drug is tested on Z-007 corresponding to rat gut metagenome with ENA study accession number: PRJEB37062 and ENA sample accession number: ERS12561807 for biotransformation under anaerobic condition. The drug concentrations were measured over 9 timepoints collected between 0 and 24 hours of incubation by liquid-chromatography-coupled mass spectrometry (LC–MS). Particulars: 2 µM.

A short description of series [6]: The drug is tested on Z-024 corresponding to pig gut metagenome with ENA study accession number: PRJEB37062 and ENA sample accession number: ERS12561823 for biotransformation under anaerobic condition. The drug concentrations were measured over 9 timepoints collected between 0 and 24 hours of incubation by liquid-chromatography-coupled mass spectrometry (LC–MS). Particulars: 2 µM.

For series [7] the following is noted: human gut metagenome, 24 h, 2 µM. The source holds these as a separate data set.
The nature of series [8]: The drug is tested on WLS-077 corresponding to human gut metagenome with ENA study accession number: PRJEB37062 and ENA sample accession number: ERS12561750 for biotransformation under anaerobic condition. The drug concentrations were measured over 9 timepoints collected between 0 and 24 hours of incubation by liquid-chromatography-coupled mass spectrometry (LC–MS). The conditions noted are these: 2 µM.

Series [9] is described as follows: The drug is tested on Z-025 corresponding to rabbit gut metagenome with ENA study accession number: PRJEB37062 and ENA sample accession number: ERS12561824 for biotransformation under anaerobic condition. The drug concentrations were measured over 9 timepoints collected between 0 and 24 hours of incubation by liquid-chromatography-coupled mass spectrometry (LC–MS). The conditions noted are these: 2 µM.
Also: call rule not given here.

Take `CCC1(c2ccc(N)cc2)CCC(=O)NC1=O` (configuration not stated) [AMINOGLUTETHIMIDE]: the “Bacterial Biotransformation” value is given as “Compound NOT metabolized” in series [1]; “Compound NOT metabolized” in series [2]; “Compound metabolized” in [3]; “Compound NOT metabolized” in [4]; “Compound NOT metabolized” in series [5]; “Compound metabolized” in series [6]. Also, the “Bacterial Biotransformation” value in series [7] and in [8] was “Compound NOT metabolized” each time.
As to `CN1CCc2cccc3c2[C@H]1Cc1ccc(O)c(O)c1-3` [APOMORPHINE], the “Bacterial Biotransformation” value in [1] was “Compound NOT metabolized”; in series [2] it was “Compound NOT metabolized”; in series [3], “Compound metabolized”; in series [4], “Compound NOT metabolized”; in series [6], “Compound metabolized”; in series [9] it was “Compound metabolized”. Also, the “Bacterial Biotransformation” value in series [7] and in series [8] was “Compound NOT metabolized” each time.
Regarding `C[C@@H]1CC[C@H]2[C@@H](C)C(=O)O[C@@H]3O[C@@]4(C)CC[C@@H]1[C@]32OO4` [ARTEMISININ], the “Bacterial Biotransformation” value in series [2], in series [4], in series [6], in series [7] and in [8] was “Compound metabolized” throughout.
`OC(CCN1CCCCC1)(c1ccccc1)C1CC2C=CC1C2` (configuration not stated) [BIPERIDEN]: the “Bacterial Biotransformation” value was “Compound NOT metabolized” in [1]; “Compound metabolized” in series [2]; “Compound NOT metabolized” in series [4]; “Compound NOT metabolized” in series [7]; “Compound NOT metabolized” in series [8].
Turning to `CC(=O)O[C@]1(C(C)=O)CC[C@H]2[C@@H]3C=C(Cl)C4=CC(=O)[C@@H]5C[C@@H]5[C@]4(C)[C@H]3CC[C@@]21C` [CYPROTERONE ACETATE], the “Bacterial Biotransformation” value was “Compound metabolized” in series [1]; “Compound metabolized” in series [2]; “Compound metabolized” in [3]; “Compound NOT metabolized” in series [4]; “Compound metabolized” in series [7]; “Compound metabolized” in [8].
As for `C#C[C@]1(O)CC[C@H]2[C@@H]3CCC4=Cc5oncc5C[C@]4(C)[C@H]3CC[C@@]21C` [DANAZOL], the “Bacterial Biotransformation” value in series [1] was “Compound NOT metabolized”; in series [6], “Compound metabolized”; in series [9] it was “Compound metabolized”; in series [8] it was “Compound metabolized”.
Regarding `CCN(CC)C(=O)/C(C#N)=C/c1cc(O)c(O)c([N+](=O)[O-])c1` [ENTACAPONE], the “Bacterial Biotransformation” value in [3], in series [5], in series [6] and in [9] was “Compound metabolized” each time.
`CN1C[C@H](C(=O)N[C@]2(C)O[C@@]3(O)[C@@H]4CCCN4C(=O)[C@H](Cc4ccccc4)N3C2=O)C=C2c3cccc4[nH]cc(c34)C[C@H]21.CN1C[C@H](C(=O)N[C@]2(C)O[C@@]3(O)[C@@H]4CCCN4C(=O)[C@H](Cc4ccccc4)N3C2=O)C=C2c3cccc4[nH]cc(c34)C[C@H]21.O=C(O)C(O)C(O)C(=O)O` [ERGOTAMINE TARTRATE]: the “Bacterial Biotransformation” value was “Compound metabolized” in series [1]; “Compound metabolized” in [2]; “Compound metabolized” in [4]; “Compound NOT metabolized” in [5]; “Compound metabolized” in [7]; “Compound metabolized” in [8].
As to `COC(=O)C1=C(C)NC(C)=C(C(=O)OC(C)C)C1c1cccc2nonc12` (configuration not stated) [ISRADIPINE], the “Bacterial Biotransformation” value is listed as “Compound metabolized” in [1]; “Compound metabolized” in series [2]; “Compound NOT metabolized” in series [4]; “Compound NOT metabolized” in [7]; “Compound NOT metabolized” in series [8].
Turning to `COc1c2occc2cc2ccc(=O)oc12` [METHOXSALEN], the “Bacterial Biotransformation” value is listed as “Compound metabolized” in series [1]; “Compound metabolized” in series [3]; “Compound metabolized” in series [4]; “Compound NOT metabolized” in [5]; “Compound metabolized” in series [6]; “Compound metabolized” in [9]. Also, the “Bacterial Biotransformation” value in [7] and in series [8] was “Compound metabolized” throughout.
As to `COc1ccccc1N1CCN(CC(O)COc2cccc3ccccc23)CC1` (configuration not stated) [NAFTOPIDIL], the “Bacterial Biotransformation” value in [1] is given as “Compound NOT metabolized”; in series [2], “Compound NOT metabolized”; in [3], “Compound NOT metabolized”; in series [4], “Compound NOT metabolized”; in series [5], “Compound NOT metabolized”; in [6], “Compound metabolized”. In addition, the “Bacterial Biotransformation” value in series [7] and in series [8] was “Compound NOT metabolized” throughout.
Consider `CN(C(=O)CN(CCO)CC(=O)N(C)C(C)(C)Cc1ccccc1)C(C)(C)Cc1ccccc1` [OXETHAZAINE], for which the “Bacterial Biotransformation” value in series [1], in [2], in series [4], in [7] and in series [8] was “Compound metabolized” throughout.
Consider `Cc1nc2n(c(=O)c1CCN1CCC(c3noc4cc(F)ccc34)CC1)CCCC2O` (configuration not stated) [PALIPERIDONE], for which the “Bacterial Biotransformation” value in series [1], in series [2], in series [3], in series [4], in series [6] and in series [7] was “Compound metabolized” each time. For the same compound, the “Bacterial Biotransformation” value in series [8] is recorded as “Compound metabolized”.
With `CN1CCN(CC/C=C2/c3ccccc3Sc3ccc(S(=O)(=O)N(C)C)cc32)CC1` [THIOTHIXENE], the “Bacterial Biotransformation” value is reported as “Compound metabolized” in [1]; “Compound metabolized” in series [2]; “Compound metabolized” in [4]; “Compound metabolized” in series [7]; “Compound NOT metabolized” in [8].
Regarding `Cc1cn([C@H]2C[C@H](N=[N+]=[N-])[C@@H](CO)O2)c(=O)[nH]c1=O` [ZIDOVUDINE], the “Bacterial Biotransformation” value in [1] is given as “Compound NOT metabolized”; in series [2], “Compound NOT metabolized”; in [3], “Compound NOT metabolized”; in series [4], “Compound NOT metabolized”; in series [5], “Compound metabolized”; in [6], “Compound NOT metabolized”. Moreover, the “Bacterial Biotransformation” value in [9] is recorded as “Compound metabolized”; in [7] it was “Compound NOT metabolized”.
Turning to `CS(=O)(=O)O.O.O.O.O=C1Cc2cc(CCN3CCN(c4nsc5ccccc45)CC3)c(Cl)cc2N1` [ZIPRASIDONE MESYLATE], the “Bacterial Biotransformation” value in [1] is “Compound metabolized”; in series [2], “Compound metabolized”; in series [4] it was “Compound NOT metabolized”; in series [7] it was “Compound metabolized”; in series [8], “Compound NOT metabolized”.
